# Laboratory results taken from patent US6420129B1, “Reagent composition for determination of electrolytes” (Toyo Boseki Kabushiki Kaisha, priority 1998, dated 2002).
# Key:
# [1] = molecular target: T1, Inactive α-amylase (from swine pancreas) (Sus scrofa, UniProt P00690); assay: Relative sensitivity in determination of calcium with 10 mg/dl calcium standard solution; assay type: biochemical; conditions: just after the preparation, 10 mg/dl calcium standard
# T1 construct: α-amylase derived from the swine pancreas; from tissue; host or cells: swine pancreas
# T1 sequence (P00690 16-511): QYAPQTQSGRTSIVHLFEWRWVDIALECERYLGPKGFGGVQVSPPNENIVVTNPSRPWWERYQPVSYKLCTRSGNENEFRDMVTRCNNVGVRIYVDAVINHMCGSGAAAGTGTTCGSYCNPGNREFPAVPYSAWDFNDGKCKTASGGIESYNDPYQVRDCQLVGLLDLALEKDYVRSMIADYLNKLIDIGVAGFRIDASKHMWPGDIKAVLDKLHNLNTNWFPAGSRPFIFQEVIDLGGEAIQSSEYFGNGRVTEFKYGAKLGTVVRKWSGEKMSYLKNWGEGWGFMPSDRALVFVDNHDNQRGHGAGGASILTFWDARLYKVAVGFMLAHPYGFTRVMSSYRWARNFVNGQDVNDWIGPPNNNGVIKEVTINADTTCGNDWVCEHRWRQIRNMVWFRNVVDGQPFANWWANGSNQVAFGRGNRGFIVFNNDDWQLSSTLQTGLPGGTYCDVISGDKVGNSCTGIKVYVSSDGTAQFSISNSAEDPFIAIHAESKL
# Experimental: [table] In the test enzyme solutions of the reagents for the determination of calcium with the reagent formulations as described above in Example 1, glucosyl-α-cyclodextrin, maltosyl-α-cyclodextrin, glucosyl-β-cyclodextrin, or maltosyl-β-cyclodextrin was independently added as a cyclodextrin derivative at 0, 1.5, 3, 6, or 12 mM. To the test enzyme solutions containing 3 mM glucosyl-β-cyclodextrin was further added independently N-acetylcysteine or reduced glutathione at 2.5, 5, 10, or 20 mM, and the determination of calcium ions with a calcium standard solution was carried out as described below. According to the method as described below, the determination of the amount of calcium was carried out for test solutions just after the preparation with 10 mg/dl calcium standard solution as a sample, and the relative sensitivity (%) was determined under the respective reagent conditions when the sensitivity in the case of no addition of cyclodextrin derivatives was taken as 100%. B. Method for the Determination of the Amount of Calcium To 5.8 μl of a sample was added 180 μl of a test enzyme solution, and the mixture was pre-warmed for 5 minutes, to which 90 μl of a test substrate solution was further added to make the reaction start. […] The measuring apparatus used was HITACHI Automatic Analyzer model 7170. The measurement wavelength was 405 nm for the principal wavelength and 546 nm for the second wavelength. The measurement was carried out at 37° C. […] The test solutions thus prepared were used for the determination of the calcium standard solution in the same manner as described in Example 3.
# [2] = molecular target: T1, Inactive α-amylase (from swine pancreas); assay: Residual activity of α-amylase in test enzyme solutions after storage; assay type: biochemical; conditions: after storage at 35° C. for 7 days
# Experimental: [table] In the test enzyme solutions of the reagents for the determination of calcium with the reagent formulations as described above in Example 1, glucosyl-α-cyclodextrin, maltosyl-α-cyclodextrin, glucosyl-β-cyclodextrin, or maltosyl-β-cyclodextrin was independently added as a cyclodextrin derivative at 12 mM. […] Instead of the cyclodextrin derivatives and the SH group containing compounds in the reagent formulations as described above in Example 1, glucose (100 mM), maltose (50 mM), maltotriose (30 mM), α-cyclodextrin (1.5 mM), β-cyclodextrin (1.5 mM), γ-cyclodextrin (1.5 mM), N-acetylcysteine (20 mM), or reduced glutathione (20 mM) was independently added to have the respective concentrations as shown in Table 3.
# [3] = molecular target: T1, Inactive α-amylase (from swine pancreas); assay: Calcium linearity of test solutions just after preparation and after storage; assay type: biochemical; conditions: after the storage at 35° C. for 7 days
# Experimental: To 5.8 μl of a sample was added 180 μl of a test enzyme solution, and the mixture was pre-warmed for 5 minutes, to which 90 μl of a test substrate solution was further added to make the reaction start. The change of absorbance per minute for 3 minutes was measured starting at the time when 2 minutes passed after the addition of the test substrate solution, and the amount of calcium in the sample was determined according to the two-point calibration curves for purified water and 10 mg/dl calcium standard solution.
# The measuring apparatus used was HITACHI Automatic Analyzer model 7170. The measurement wavelength was 405 nm for the principal wavelength and 546 nm for the second wavelength. The measurement was carried out at 37° C.
# […] […] According to the method for the determination of the amount of calcium as described in Example 3, Sec. B, the calcium linearity was determined for test solutions just after the preparation and after the storage at 35° C. for 7 days with serial 10-fold dilutions of a 50 mg/dl aqueous calcium solution as samples.
# Instead of the cyclodextrin derivatives and the SN-group containing compounds in the reagent formulations as described above in Example 1, β-cyclodextrin was added at 1.5 mM. The test solutions thus prepared were stored at 35° C. for 7 days and the calcium linearity was determined in the same manner as described in Example 3.
# [4] = Visual observation of test solutions for deposition of crystals or white turbidity; assay type: physicochemical; design: key to turbidity (visual observation): +: turbidity found; −: no turbidity
# Experimental: Among the reagents for the determination of calcium with the reagent formulations as described below, test enzyme solutions were prepared by the addition of glucosyl-α-cyclodextrin (G1αCD), maltosyl-α-cyclodextrin (G2αCD), glucosyl-p-cyclodextrin (G1βCD), or maltosyl-β-cyclodextrin(G2βCD) as a cyclodextrin derivative to have a concentration of 0, 1.5, 3, 6, or 12 mM. To the test enzyme solutions containing 3 mM glucosyl-β-cyclodextrin was further added independently N-acetylcysteine or reduced glutathione to have a concentration of 2.5, 5, 10, or 20 mM.
# Both kinds of test solutions prepared by the above procedures were stored at 4° C. for 3 months. Visual observation of the test solutions was carried out just after the preparation and after the storage to examine whether there was found the deposition of crystals or the presence of white turbidity. The results are shown in table 1 for the visual observation just after the preparation and in Table 2 for the visual observation after the storage.
# The test solutions were prepared in the same manner as described in Example 1, except that α-cyclodextrin (αCD) (1.5, 3, 6, or 12 mM), β-cyclodextrin (βCD) (1.5, 3, 6, or 12 mM), or γ-cyclodextrin (γCD) (1.5, 3, 6, or 12 mM) was independently added instead of the cyclodextrin derivatives and the SH group containing compounds in the above reagent formulations to have the respective concentrations as shown in Table 1. Both kinds of test solutions were stored at 4° C. for 3 months. Visual observation of the test solutions was carried out just after the preparation and after the storage to examine whether there was found the deposition of crystals or the presence of white turbidity. The results are shown in Table 1 for the visual observation just after the preparation and in Table 2 for the visual observation after the storage.
# [5] = after storage at 4° C. for 3 months, agent added 1.5 mM
# [6] = after storage at 4° C. for 3 months, agent added 3 mM
# [7] = after storage at 4° C. for 3 months, agent added 6 mM
# [8] = after storage at 4° C. for 3 months, agent added 12 mM
# [9] = just after the preparation, agent added 1.5 mM
# [10] = just after the preparation, agent added 3 mM
# [11] = just after the preparation, agent added 6 mM
# [12] = just after the preparation, agent added 12 mM
SMILES,Relative sensitivity (%) when sensitivity in case of no addition is taken as 100% ([1]; agent 1.5 mM) [%],Relative sensitivity (%) when sensitivity in case of no addition is taken as 100% ([1]; agent 3 mM) [%],Relative sensitivity (%) when sensitivity in case of no addition is taken as 100% ([1]; agent 6 mM) [%],Relative sensitivity (%) when sensitivity in case of no addition is taken as 100% ([1]; agent 12 mM) [%],Residual activity (%) ([2]; agent 12 mM),calcium linearity / quantitative reliability (in words) ([3]; agent 12 mM),"turbidity (visual observation) [4, 5]","turbidity (visual observation) [4, 6]","turbidity (visual observation) [4, 7]","turbidity (visual observation) [4, 8]","turbidity (visual observation) [4, 9]","turbidity (visual observation) [4, 10]","turbidity (visual observation) [4, 11]","turbidity (visual observation) [4, 12]",Residual activity (%) ([2]; agent 1.5 mM),calcium linearity / quantitative reliability (in words) ([3]; agent 1.5 mM),"turbidity of test enzyme solution (in words) ([4]; after the storage at 4° C. for 3 months, at 3 mM)","turbidity of test enzyme solution (in words) ([4]; just after the preparation, at 6 mM)"
"OCC1OC(OCC2OC3OC4C(CO)OC(OC5C(CO)OC(OC6C(CO)OC(OC7C(CO)OC(OC8C(CO)OC(OC9C(CO)OC(OC2C(O)C3O)C(O)C9O)C(O)C8O)C(O)C7O)C(O)C6O)C(O)C5O)C(O)C4O)C(O)C(O)C1O (stereo not drawn) [G1βCD, glucosyl-β-cyclodextrin]",120.7,128.6,133.2,122.5,91.7,the quantitative reliability was kept at high concentrations,−,−,−,−,−,−,−,−,,,,
"OC[C@H]1O[C@@H]2O[C@H]3[C@H](O)[C@@H](O)[C@@H](O[C@H]4[C@H](O)[C@@H](O)[C@@H](O[C@H]5[C@H](O)[C@@H](O)[C@@H](O[C@H]6[C@H](O)[C@@H](O)[C@@H](O[C@H]7[C@H](O)[C@@H](O)[C@@H](O[C@H]8[C@H](O)[C@@H](O)[C@@H](O[C@H]1[C@H](O)[C@H]2O)O[C@@H]8CO)O[C@@H]7CO)O[C@@H]6CO)O[C@@H]5CO)O[C@@H]4CO)O[C@@H]3CO [βCD, β-cyclodextrin, reference compound]",,,,,,,−,−,+,+,−,−,+,+,77.4,"became deviated upward, and the quantitative reliability was decreased at high concentrations",became turbid,had already become turbid
